In ChEMBL document CHEMBL1201862, “PubChem BioAssay data set” (2004):
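48-hour exposure; five concentrations; linearly interpolated endpoints. GI50: concentration for 50% inhibition of growth.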 The source made the active and inactive calls. No stated cut-off is given here; in the data, active = GI50 up to about 1.1 µM and inactive = higher.

Experiments:
Assay in all cases: NCI anticancer screen, dose series, 48 h
K562 = test system: K562
CAKI-1 = test system: CAKI-1
Hs-578T = test system: Hs-578T
SW-620 = test system: SW-620
HCC 2998 = test system: HCC 2998
DU-145 = test system: DU-145
786-0 = test system: 786-0
SNB-19 = test system: SNB-19
BT-549 = test system: BT-549
MCF7 = test system: MCF7
TK-10 = test system: TK-10
ACHN = test system: ACHN
A498 = test system: A498
SK-MEL-2 = test system: SK-MEL-2
UACC-62 = test system: UACC-62
NCI-H522 = test system: NCI-H522
COLO 205 = test system: COLO 205
UACC-257 = test system: UACC-257
IGROV-1 = test system: IGROV-1

Compound	GI50 (K562)	GI50 (CAKI-1)	GI50 (Hs-578T)	GI50 (SW-620)	GI50 (HCC 2998)	GI50 (DU-145)	GI50 (786-0)	GI50 (SNB-19)	GI50 (BT-549)	GI50 (MCF7)	GI50 (TK-10)	GI50 (ACHN)	GI50 (A498)	GI50 (SK-MEL-2)	GI50 (UACC-62)	GI50 (NCI-H522)	GI50 (COLO 205)	GI50 (UACC-257)	GI50 (IGROV-1)
COc1ccc(NC2C(=O)C3(C)CCC2C3(C)C)cc1 (stereo not given)	63.7 µM (inactive)	> 100 µM (inactive)	> 100 µM (inactive)	> 100 µM (inactive)	> 100 µM (inactive)	> 100 µM (inactive)	> 100 µM (inactive)	> 100 µM (inactive)	69 µM (inactive)	> 100 µM (inactive)	> 100 µM (inactive)	> 100 µM (inactive)	> 100 µM (inactive)	> 100 µM (inactive)	> 100 µM (inactive)	79.4 µM (inactive)	> 100 µM (inactive)	49 µM (inactive)	> 100 µM (inactive)
CC(=O)OC1C[C@@H](C)C2(CC(c3ccoc3)OC2=O)C2CCC(O)C3(CO3)C12CO (stereo not given in full)	> 100 µM (inactive)	> 100 µM (inactive)	> 100 µM (inactive)	> 100 µM (inactive)	> 100 µM (inactive)	> 100 µM (inactive)	> 100 µM (inactive)	> 100 µM (inactive)	> 100 µM (inactive)	> 100 µM (inactive)	> 100 µM (inactive)	> 100 µM (inactive)	> 100 µM (inactive)	> 100 µM (inactive)	> 100 µM (inactive)	> 100 µM (inactive)	> 100 µM (inactive)	> 100 µM (inactive)	> 100 µM (inactive)
O=C(c1ccccc1)c1sc2c(=O)c(C(=O)c3ccccc3)c(C(=O)c3ccccc3)sc2c(=O)c1C(=O)c1ccccc1	15.9 µM (inactive)	18.9 µM (inactive)	77.6 µM (inactive)	21.8 µM (inactive)	19.5 µM (inactive)	> 100 µM (inactive)	32.1 µM (inactive)	55.3 µM (inactive)	37.7 µM (inactive)	23.7 µM (inactive)	64.3 µM (inactive)	51.9 µM (inactive)	> 100 µM (inactive)	50.6 µM (inactive)	> 100 µM (inactive)	18 µM (inactive)	> 100 µM (inactive)	> 100 µM (inactive)	15.6 µM (inactive)
CCCc1[nH]nc(C(N)=O)c1/N=N/N(C)C	2.56 µM (inactive)	28.4 µM (inactive)	50 µM (inactive)	63.7 µM (inactive)	> 100 µM (inactive)	49.5 µM (inactive)	65.5 µM (inactive)	> 100 µM (inactive)	24.3 µM (inactive)	20.1 µM (inactive)	67.5 µM (inactive)	44.2 µM (inactive)	71.6 µM (inactive)	> 100 µM (inactive)	36.9 µM (inactive)	17.8 µM (inactive)	63.2 µM (inactive)	> 100 µM (inactive)	28.5 µM (inactive)
c1ccc2c(c1)c1c3c(c4c(n32)=NCCN4)CCC1	27.6 µM (inactive)	40.8 µM (inactive)	26.5 µM (inactive)	28.5 µM (inactive)	33.6 µM (inactive)	55.3 µM (inactive)	28.1 µM (inactive)	89.9 µM (inactive)	32.1 µM (inactive)	24.8 µM (inactive)	59.7 µM (inactive)	40.9 µM (inactive)	28 µM (inactive)	23.3 µM (inactive)	30.1 µM (inactive)	20.7 µM (inactive)	28.1 µM (inactive)	38.1 µM (inactive)	27.4 µM (inactive)
CN1CC2=C(N=C(S)NC2c2ccccc2)/C(=C/c2ccccc2)C1 (stereo not given)	33 µM (inactive)	> 100 µM (inactive)	40.6 µM (inactive)	71.1 µM (inactive)	29.3 µM (inactive)	> 100 µM (inactive)	> 100 µM (inactive)	> 100 µM (inactive)	> 100 µM (inactive)	40.4 µM (inactive)	26 µM (inactive)	52.6 µM (inactive)	89.7 µM (inactive)	45.9 µM (inactive)	28.5 µM (inactive)	43 µM (inactive)	34.8 µM (inactive)	91.6 µM (inactive)	24.5 µM (inactive)
COc1ccc(C(=O)/C=C/c2ccc(O)c(O)c2F)c(OC)c1	2.56 µM (inactive)	3.24 µM (inactive)	6.44 µM (inactive)	5.09 µM (inactive)	4.07 µM (inactive)	3.44 µM (inactive)	4.43 µM (inactive)	8.3 µM (inactive)	5.38 µM (inactive)	0.279 µM (active)	9.18 µM (inactive)	3.01 µM (inactive)	8.51 µM (inactive)	3.05 µM (inactive)	7.69 µM (inactive)	0.327 µM (active)	11.5 µM (inactive)	9.08 µM (inactive)	9.98 µM (inactive)
c1ccc2c(c1)NC1(N3CCCCC3)CCCCC21 (stereo not given)	38.8 µM (inactive)	55.6 µM (inactive)	47.9 µM (inactive)	41.2 µM (inactive)	76.4 µM (inactive)	57.9 µM (inactive)	61 µM (inactive)	51.5 µM (inactive)	53 µM (inactive)	36.1 µM (inactive)	> 100 µM (inactive)	47.1 µM (inactive)	32.8 µM (inactive)	49.3 µM (inactive)	48.9 µM (inactive)	35.8 µM (inactive)	62.1 µM (inactive)	47.3 µM (inactive)	28.2 µM (inactive)
O=C(c1ccccc1)C(C(=O)c1ccccc1)c1nc2ccccc2sc1=O	12 µM (inactive)	13.1 µM (inactive)	24.5 µM (inactive)	15.9 µM (inactive)	23.7 µM (inactive)	> 25 µM (inactive)	12.1 µM (inactive)	18.5 µM (inactive)	5.92 µM (inactive)	12.2 µM (inactive)	16.9 µM (inactive)	9.84 µM (inactive)	> 25 µM (inactive)	13.5 µM (inactive)	7.11 µM (inactive)	9.57 µM (inactive)	12.5 µM (inactive)	> 25 µM (inactive)	8.11 µM (inactive)
CN1C(=O)CN(NC(=O)C2=C(O)c3ccc(Br)cc3S(=O)(=O)N2)C1=S	49.2 µM (inactive)	> 100 µM (inactive)	> 100 µM (inactive)	> 100 µM (inactive)	> 100 µM (inactive)	> 100 µM (inactive)	> 100 µM (inactive)	> 100 µM (inactive)	> 100 µM (inactive)	53.7 µM (inactive)	> 100 µM (inactive)	> 100 µM (inactive)	> 100 µM (inactive)	> 100 µM (inactive)	> 100 µM (inactive)	75.7 µM (inactive)	> 100 µM (inactive)	> 100 µM (inactive)	> 100 µM (inactive)
Cc1ccc(S(=O)(=O)N/N=C2/CCCOC2)cc1	> 100 µM (inactive)	> 100 µM (inactive)	> 100 µM (inactive)	> 100 µM (inactive)	> 100 µM (inactive)	> 100 µM (inactive)	> 100 µM (inactive)	> 100 µM (inactive)	> 100 µM (inactive)	> 100 µM (inactive)	> 100 µM (inactive)	> 100 µM (inactive)	> 100 µM (inactive)	> 100 µM (inactive)	> 100 µM (inactive)	> 100 µM (inactive)	> 100 µM (inactive)	> 100 µM (inactive)	> 100 µM (inactive)
COP(=N[Si](C)(C)C)(OC)OC	> 100 µM (inactive)	> 100 µM (inactive)	> 100 µM (inactive)	> 100 µM (inactive)	> 100 µM (inactive)	> 100 µM (inactive)	> 100 µM (inactive)	> 100 µM (inactive)	> 100 µM (inactive)	> 100 µM (inactive)	> 100 µM (inactive)	> 100 µM (inactive)	> 100 µM (inactive)	> 100 µM (inactive)	> 100 µM (inactive)	> 100 µM (inactive)	> 100 µM (inactive)	> 100 µM (inactive)	> 100 µM (inactive)
Cc1cn2c(/C=C3/C(=O)Nc4ccccc43)c(-c3ccccc3)nc2s1	> 100 µM (inactive)	> 100 µM (inactive)	27.7 µM (inactive)	64.4 µM (inactive)	> 100 µM (inactive)	78.3 µM (inactive)	17.2 µM (inactive)	24.3 µM (inactive)	32.9 µM (inactive)	29.4 µM (inactive)	22.4 µM (inactive)	32.2 µM (inactive)	72.3 µM (inactive)	28.1 µM (inactive)	67.6 µM (inactive)	> 100 µM (inactive)	> 100 µM (inactive)	> 100 µM (inactive)	40.5 µM (inactive)
CC1=NN(c2nc(N)nc(/C(C#N)=C\c3ccc([N+](=O)[O-])s3)n2)C(C)(C)C1	< 0.0178 µM (active)	1.16 µM (inactive)	0.783 µM (active)	0.0736 µM (active)	1.41 µM (inactive)	0.24 µM (active)	0.16 µM (active)	1.66 µM (inactive)	0.701 µM (active)	0.142 µM (active)	0.507 µM (active)	0.261 µM (active)	7.78 µM (inactive)	0.375 µM (active)	0.861 µM (active)	0.101 µM (active)	0.339 µM (active)	0.211 µM (active)	0.284 µM (active)
O=S(=O)(O)c1ccc2c(/N=N\c3cccc4ccccc34)c(O)c(S(=O)(=O)O)cc2c1	> 100 µM (inactive)	> 100 µM (inactive)	> 100 µM (inactive)	> 100 µM (inactive)	> 100 µM (inactive)	> 100 µM (inactive)	> 100 µM (inactive)	> 100 µM (inactive)	> 100 µM (inactive)	> 100 µM (inactive)	> 100 µM (inactive)	> 100 µM (inactive)	> 100 µM (inactive)	> 100 µM (inactive)	> 100 µM (inactive)	> 100 µM (inactive)	> 100 µM (inactive)	> 100 µM (inactive)	> 100 µM (inactive)
